Measurements published in patent publication US20080145453A1, “Novel Dihydropyrimidine Derivatives And Their Use As Anti-Cancer Agents” (priority 2005, published 2008).

Legend:
[1] = target: T1, human Eg5 (monomeric construct Eg52-386) (Homo sapiens, UniProt P52732); assay: In vitro inhibition of the ATPase activity of kinesin Eg5 (pyruvate kinase/lactate dehydrogenase coupled assay); format: biochemical; settings: for % inhibition: in vitro ATPase activity of Eg5, inhibitor concentration not given; for IC50: in vitro inhibition of ATPase activity of Eg5
T1 construct: the basal ATPase activity was measured using 1-4 μM of Eg5 (2-386) for the above test; made in house
T1 sequence (P52732 2-386): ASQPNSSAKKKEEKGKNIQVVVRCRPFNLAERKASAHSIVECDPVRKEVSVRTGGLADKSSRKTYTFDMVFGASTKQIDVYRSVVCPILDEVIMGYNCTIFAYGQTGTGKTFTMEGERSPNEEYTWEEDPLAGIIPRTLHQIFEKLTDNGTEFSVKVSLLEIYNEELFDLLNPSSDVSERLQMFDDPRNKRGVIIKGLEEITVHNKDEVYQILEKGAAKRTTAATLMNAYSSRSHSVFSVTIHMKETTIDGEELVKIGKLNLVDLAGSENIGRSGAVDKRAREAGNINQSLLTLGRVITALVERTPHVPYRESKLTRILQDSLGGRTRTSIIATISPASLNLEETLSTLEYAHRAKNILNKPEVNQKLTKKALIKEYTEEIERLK
Procedure: All the assays were carried out at ambient temperature using the TECAN 96-well Sunrise photometer with a final volume of 200-250 μl per well. The ATPase contents were measured using the pyruvate kinase/lactate dehydrogenase protocol in an A25A buffer (25 mM potassium ACES, pH 6.9, 2 mM magnesium acetate, 2 mM potassium EGTA, 0.1 mM potassium EDTA, 1 mM mercaptoethanol) . In the […] of MT (microtubules) stabilized with paclitaxel, 300 nM of Eg52-386 were used for the test and, in the absence of MT, the basal ATPase activity was measured using 1-4 μM of Eg5 (2-386) for the above test or the malachite green test. For optimal solubility of the inhibitor, the assays were carried out in the presence of up to 2.2% of DMSO. […] The data were analyzed using a Kaleidagraph 3.0 (Synergy Software) and Microsoft Excel, so as to obtain the IC50 values.
The IC50 values for the in vitro inhibition of the ATPase activity of the kinesin motor proteins are determined according to the method described in S. DeBonis et al. (2003) Biochemistry 42, 338-349. Monastrol was used as a positive control. When necessary, the concentrations of inhibitor were adjusted according to the initial IC50. Each concentration of inhibitor was measured one to three times and averaged data are indicated with the margins of error±the standard deviation.

kinesin Eg5 = target: T2, kinesin Eg5 (Homo sapiens, UniProt P52732); settings: prior-art values given in the background; read-out: antimitotic effect IC50; cited from earlier work
T2 sequence (P52732 1-1056): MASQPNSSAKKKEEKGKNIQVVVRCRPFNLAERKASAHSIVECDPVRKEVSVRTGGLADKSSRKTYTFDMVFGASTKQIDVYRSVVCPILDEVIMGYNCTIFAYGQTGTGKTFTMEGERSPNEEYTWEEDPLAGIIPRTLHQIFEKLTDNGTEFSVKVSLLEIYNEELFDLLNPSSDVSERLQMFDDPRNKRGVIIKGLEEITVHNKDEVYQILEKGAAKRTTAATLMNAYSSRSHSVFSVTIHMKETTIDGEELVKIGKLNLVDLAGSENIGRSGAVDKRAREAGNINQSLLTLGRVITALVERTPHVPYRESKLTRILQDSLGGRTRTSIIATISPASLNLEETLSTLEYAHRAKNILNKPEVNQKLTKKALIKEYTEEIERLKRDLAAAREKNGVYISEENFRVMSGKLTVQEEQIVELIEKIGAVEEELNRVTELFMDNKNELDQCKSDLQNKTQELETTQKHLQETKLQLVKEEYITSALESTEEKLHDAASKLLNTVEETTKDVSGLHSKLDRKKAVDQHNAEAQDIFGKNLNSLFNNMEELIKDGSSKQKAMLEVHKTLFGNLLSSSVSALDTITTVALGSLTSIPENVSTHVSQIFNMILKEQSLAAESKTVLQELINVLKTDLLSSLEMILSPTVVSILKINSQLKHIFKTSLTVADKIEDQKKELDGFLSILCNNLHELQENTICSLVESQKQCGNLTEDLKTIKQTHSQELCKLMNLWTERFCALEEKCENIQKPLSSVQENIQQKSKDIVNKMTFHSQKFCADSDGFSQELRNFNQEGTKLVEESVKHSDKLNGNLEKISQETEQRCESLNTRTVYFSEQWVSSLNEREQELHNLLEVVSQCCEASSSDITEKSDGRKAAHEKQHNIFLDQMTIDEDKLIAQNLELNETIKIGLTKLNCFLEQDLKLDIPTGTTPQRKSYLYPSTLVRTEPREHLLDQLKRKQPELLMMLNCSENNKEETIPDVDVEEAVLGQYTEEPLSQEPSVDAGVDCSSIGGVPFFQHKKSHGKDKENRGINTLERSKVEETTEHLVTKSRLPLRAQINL

CCOC(=O)C1=C(C)NC(=S)NC1c1ccccc1 (stereo not drawn) [Compound 1]
% inhibition [1]: 80% | IC50 [1]: 9.5 µM

CCOC(=O)C1=C(C)NC(=S)NC1c1cccc(O)c1 (stereo not drawn) [Compound 2]
% inhibition [1]: ≧90%^ | IC50 [1]: 16 µM

CCOC(=O)C1=C(C)NC(=S)NC1c1ccc(O)cc1 (stereo not drawn) [Compound 3]
% inhibition [1]: 20% | IC50 [1]: 212 µM

COc1ccc(C2NC(=S)NC(C)=C2C(=O)OCc2ccccc2)cc1 (stereo not drawn) [Compound 4]
% inhibition [1]: 40% | IC50 [1]: 6.6 µM

CC1=C(C(=O)OCc2ccccc2)C(c2ccccc2)NC(=S)N1 (stereo not drawn) [Compound 5]
% inhibition [1]: 40% | IC50 [1]: 11.8 µM

CC1=C(C(=O)OCc2ccccc2)C(c2cccc(O)c2)NC(=S)N1 (stereo not drawn) [Compound 6]
% inhibition [1]: ≧90%^ | IC50 [1]: 10.3 µM

CCOC(=O)C1=C(C)N(C)C(=S)NC1c1ccccc1 (stereo not drawn) [Compound 7]
% inhibition [1]: 60% | IC50 [1]: 21 µM

CCOC(=O)C1=C(C)N(C)C(=S)NC1c1cccc(O)c1 (stereo not drawn) [Compound 8]
% inhibition [1]: ≧90%^ | IC50 [1]: 6.3 µM

CC(=O)C1=C(C)NC(=S)NC1c1ccccc1 (stereo not drawn) [Compound 9]
% inhibition [1]: ≧90%^ | IC50 [1]: 24 µM

CC(=O)C1=C(C)NC(=S)NC1c1ccc(O)cc1 (stereo not drawn) [Compound 10]
% inhibition [1]: 80% | IC50 [1]: 56 µM

CC1=C(C(=O)c2ccccc2)C(c2ccc(O)cc2)NC(=S)N1 (stereo not drawn) [Compound 11]
% inhibition [1]: ≧90%^ | IC50 [1]: 14.7 µM

CC(=O)C1=C(C)N(C)C(=S)NC1c1ccccc1 (stereo not drawn) [Compound 12]
% inhibition [1]: 40% | IC50 [1]: 80 µM

CC1=C(C(=O)c2ccccc2)C(c2ccccc2)NC(=S)N1C (stereo not drawn) [Compound 13]
% inhibition [1]: ≧90%^ | IC50 [1]: 1.1 µM

CC1=C(C(=O)OCc2ccccc2)C(c2cccc(O)c2)NC(=S)N1C (stereo not drawn) [Compound 14]
% inhibition [1]: 48% | IC50 [1]: 9.8 µM

CC(=O)C1=C(C)NC(=S)NC1c1cccc(O)c1 (stereo not drawn) [Compound 15]
% inhibition [1]: ≧90%^ | IC50 [1]: 0.51 µM

CC(=O)C1=C(C)N(C)C(=S)NC1c1cccc(O)c1 (stereo not drawn) [Compound 16]
% inhibition [1]: 40% | IC50 [1]: 133 µM

CC1=C(C(=O)c2ccccc2)C(c2cccc(O)c2)NC(=S)N1 (stereo not drawn) [Compound 17]
% inhibition [1]: ≧90%^ | IC50 [1]: 0.25 µM

CC1=C(C(=O)c2ccccc2)C(c2cccc(O)c2)NC(=S)N1C (stereo not drawn) [Compound 18]
% inhibition [1]: ≧90%^

CC1=C(C(=O)c2ccccc2)C(c2ccc(O)cc2)NC(=S)N1C (stereo not drawn) [Compound 19]
% inhibition [1]: 87% | IC50 [1]: 24 µM

CCOC(=O)C1=C(C)NC(=S)NC1c1cccc(Cl)c1 (stereo not drawn) [Compound 20]
% inhibition [1]: 60% | IC50 [1]: 10 µM

CCOC(=O)C1=C(C)NC(=S)NC1c1cccc(OC)c1 (stereo not drawn) [Compound 21]
% inhibition [1]: 20% | IC50 [1]: 57 µM

CCOC(=O)C1=C(C)NC(=S)NC1c1ccccc1F (stereo not drawn) [Compound 22]
% inhibition [1]: 60% | IC50 [1]: 20 µM

CCOC(=O)C1=C(C)NC(=S)NC1c1ccccc1Cl (stereo not drawn) [Compound 24]
% inhibition [1]: 60% | IC50 [1]: 32 µM

CCOC(=O)C1=C(C)NC(=S)NC1c1cccc(F)c1 (stereo not drawn) [Compound 25]
% inhibition [1]: 60% | IC50 [1]: 14 µM

CC1=C(C(=O)c2ccccc2)C(c2ccccc2)NC(=O)N1C (stereo not drawn) [Compound 26]
% inhibition [1]: 84% | IC50 [1]: 5 µM

CC1=C(C(=O)c2ccccc2)C(c2cccc(O)c2)NC(=O)N1C (stereo not drawn) [Compound 27]
% inhibition [1]: 85% | IC50 [1]: 0.8 µM

C=CCN1C(=S)NC(c2cccc(O)c2)C(C(=O)c2ccccc2)=C1C(F)(F)F (stereo not drawn) [Compound 28]
% inhibition [1]: 70% | IC50 [1]: 17 µM

CCOC(=O)C1=C(C(C)C)NC(=S)NC1c1cccc(O)c1 (stereo not drawn) [Compound 29]
% inhibition [1]: 80% | IC50 [1]: 8.5 µM

CCOC(=O)C1=C(CC)N(C)C(=S)NC1c1cccc(O)c1 (stereo not drawn) [Compound 30]
% inhibition [1]: ≧90%^ | IC50 [1]: 10 µM

CC1=C(C(=O)c2cccc(F)c2)C(c2cccc(O)c2)NC(=S)N1 (stereo not drawn) [Compound 31]
% inhibition [1]: 87% | IC50 [1]: 0.82 µM

CC1=C(C(=O)c2cccc(Cl)c2)C(c2cccc(O)c2)NC(=S)N1 (stereo not drawn) [Compound 32]
% inhibition [1]: ≧90%^ | IC50 [1]: 0.5 µM

CC1=C(C(=O)c2cccc(I)c2)C(c2cccc(O)c2)NC(=S)N1 (stereo not drawn) [Compound 33]
% inhibition [1]: ≧90%^ | IC50 [1]: 0.5 µM

COc1cccc(C(=O)C2=C(C)NC(=S)NC2c2cccc(O)c2)c1 (stereo not drawn) [Compound 34]
% inhibition [1]: ≧90%^ | IC50 [1]: 1.1 µM

CCOC(=O)C1=C(C)NC(=S)NC1c1cccc(O)c1 (stereo not drawn) [Monastrol]
IC50 (kinesin Eg5): > 14 µM
